Test results as given in PMC5357639 (Frontiers in Chemistry, 2017).
pKd: −log10 of the molar value. Where a SMILES comes first, the peptide text is derived from it. The star is where a group is joined. Orn(α-tetramethylguanidino) = CN(C)C(=N[C@@H](CCCN)C(=O)*)N(C)C

How the values were obtained:
in vivo = experiment: in vivo; design: species or system NMRI mice; conditions: mouse, ip; for C0: c0 (initial concentration at time point 0 min)
Excerpt: (§1) A protocol to quantify Api88, Api137, and their major metabolites was established analog to that of oncocin derivatives, reported recently (Schmidt et al., [2016]). Briefly, an Alliance® 2695 HPLC system was coupled online to an ESI-QqLIT-MS (4,000 QTRAP®) equipped with a TurboV™ ion-spray source and operated in positive ion MRM mode using the Analyst® 1.6 software. Separation was achieved on a Jupiter C18-column (internal diameter 1 mm, length 150 mm, particle size 5 μm, pore size 300 Å) at 55 °C using a linear 5-min gradient from 2.7 to 20.7% aqueous acetonitrile containing ammonium formate (26 mmol/L, pH 3.0). Further details about instrumentation, MRM optimization, and MS settings are provided as Supplementary Material (Tables S1–S4, Method M1).
(§2) Female NMRI mice (8–9 weeks, 25–35 g) were injected intraperitoneally (10 mL/kg) with peptides dissolved in sterile PBS (Gibco® Life Technologies™, Darmstadt, Germany) at concentrations of 0.5 or 2 g/L corresponding to doses of 5 or 20 mg/kg body weight, respectively. After 10, 20, 30, 60, or 90 min animals (n = 7) were euthanized by carbon dioxide inhalation and terminal bleeding via cardiac puncture. Lithium-heparin plasma (n = 7) was prepared and stored at −80°C. Immediately after the final bleed, mice were perfused through the left ventricle with saline (0.9%, 50 mL, ~3 min) to remove blood from all organs controlled by discoloration of the liver. Organs were removed aseptically and directly frozen in liquid nitrogen. Spontaneously released urine was collected and frozen immediately at −80°C.
(§3) Method M1: M ultiple reaction monitoring (MRM) transitions for apidaecin peptides Peptides (1 µ g/ m L ) were dissolved inaqueous acetonitrile (25% or 60% v/ v) containing either formate buffer (26 mmol/ L, pH 2.6, 3.0, 3.3 or 3.9 ) or formic acid (0.1% v/v ) and infused (flow rate 5 µ L/min, PHD 2600 s yringe pump) into the ES I-Q q L IT -MS (4000 QTRAP®) to optimize buffer composition and MRM. Transitions were selected from the tandem mass spectra (MS/MS) and confirmed on an ESI-QqTOF-MS (QSTAR® pulsar I) providing higher mass resolutions and mass accuracies than the QTRAP ®. The settings for declustering potential (DP), collision potential (CE), and collision cell exit potential (CXP) were optimized by ramping the respective pot entials using the compound optimization tool of the Anal yst® software.
(§4) Method M2: Sample preparation
(§5) Frozen organs (5 per group) wer e homogenized in sterile PBS (500 µ L) containing Protease Inhibitor Mix M (1% v/v; SERVA Electrophoresis GmbH, Heidelberg, German y) using an Ultra-Turr ax ® T25 basic (IKA-Werke, Staufen, German y, rotational speed 21,500 min-1) for 1 min. Homogenates were sonicated on ice (35% amplitude, mode: 5 s on; 5 s off for 1 min; Vibra-cell™ 75041, Thermo Fisher Scientific) to disrupt cells. After centrifugation (15 min, 21,460 x g, 4°C) the supernatants were stored at - 80°C.
(§6) Aliquots of plasma (10 µL) or liver (10 µ L), kidney (50 µ L), and brain hom ogenates (100 µ L) were spiked with isotope -labeled Api88, Api137, Api1- 16, and Api1- 17 (2.5 µ g/ m L). The samples were diluted fourfold with aqueous phosphoric acid (3.4% v/v), loaded on an Oasis H LB 9 6 -well solid phase extraction (SPE) plate (5 mg sorbent, Waters ), washed with aqueous methanol (0.3 m L, 5% v/ v), eluted with methanol (0.3 m L), and dried in a vacuum centrifuge (30 °C; SpeedVac, Eppendorf ). The samples were dissolved prior analysis in aqueous acetonitrile (3% v/v) containing formic acid (0.1 % v/v).
(§7) Stock solutions (1 g/L) of the peptides and their corresponding isotope-labelled internal standards were prepared and diluted in water. Calibration and validation mixtures (10 µL) of unlabeled (0.025, 0.1, 0.5 or 2.5 µg/m L) and isotope-labeled peptides ( 2.5 µ g/ m L ) w ere mix ed with plasma or organ homogenates (10 to 100 µL) obtained from untreated animals fo r […]
(§8) Limits of detection (LOD) and quantification (LOQ) corresponded to the lowest peptide […]

[1] = Organ distribution (blood, kidney, liver and brain homogenates, urine) after intraperitoneal administration; assay type: in vivo, NMRI mice; conditions: for Peptide level in brain homogenates (not detected, less than LOD) / Concentration in urine / Peptide level in brain (not detected, LOD converted to brain weight) / Recovered peptide amount in kidneys of treated animals / Recovery rate in blood relative to the injected peptide amount: mouse, in vivo, ip
Excerpt: as §1, §2, §3, §4, §5, §6, §7, §8

70S ribosomes = conditions: binding to 70S ribosomes; ref Krizsan et al., 2014; cited from earlier work
Excerpt: Antimicrobial peptides (AMPs) are considered as promising alternatives to common antibiotics that threateningly lose their therapeutic potentials against multidrug-resistant pathogens (Fox, [2013]; Wang et al., [2015]). In contrast to approved therapeutic peptide hormones, antimicrobial peptides have to be administered at much higher doses, which may amplify general drawbacks of peptide therapeutics. For example, the diabetes peptide drugs exenatide and pramlintide are given at daily doses of 20 μg (Byetta®; ~0.5 μg/kg) and 120 μg (Symlin®; ~1.5 μg/kg; Heine et al., [2005]; Hay et al., [2015]) ...

SMILES | AUC(0-inf) (in vivo; female, NMRI, 5 mg/kg) | Cmax (in vivo; female, NMRI, 5 mg/kg) | MRT (in vivo; female, NMRI, 5 mg/kg) | clearance (in vivo; female, NMRI, 5 mg/kg) | half-life (in vivo; female, NMRI, 5 mg/kg) | C0 (in vivo; female, NMRI, 5 mg/kg) | AUC(0-inf) (in vivo; female, NMRI, 20 mg/kg) | Cmax (in vivo; female, NMRI, 20 mg/kg) | MRT (in vivo; female, NMRI, 20 mg/kg) | clearance (in vivo; female, NMRI, 20 mg/kg) | half-life (in vivo; female, NMRI, 20 mg/kg) | Time within which peptide is cleared (in vivo) | AUMC0 → ∞ (in vivo; 5 mg/kg) | Detection in plasma (in vivo; 5 mg/kg) | Volume of distribution (in vivo; 5 mg/kg) | k (elimination constant) (in vivo; 5 mg/kg) | AUMC0 → ∞ (in vivo; 20 mg/kg) | Volume of distribution (in vivo; 20 mg/kg) | c0 (initial concentration at time point 0 min) (in vivo; 20 mg/kg) | k (elimination constant) (in vivo; 20 mg/kg) | further results
CC[C@H](C)[C@H](NC(=O)[C@H](Cc1ccc(O)cc1)NC(=O)[C@@H](NC(=O)[C@@H]1CCCN1C(=O)[C@H](CCCNC(=N)N)NC(=O)[C@H](CC(N)=O)NC(=O)[C@H](CC(N)=O)NC(=O)[C@H](CCCN)N=C(N(C)C)N(C)C)C(C)C)C(=O)N1CCC[C@H]1C(=O)N[C@@H](CCCNC(=N)N)C(=O)N1CCC[C@H]1C(=O)N[C@@H](CCCNC(=N)N)C(=O)N1CCC[C@H]1C(=O)N1CCC[C@H]1C(=O)N[C@@H](Cc1c[nH]cn1)C(=O)N1CCC[C@H]1C(=O)N[C@@H](CCCNC(=N)N)C(=O)N[C@@H](CC(C)C)C(N)=O [Api88] ({Orn(α-tetramethylguanidino)}-NNRPVYIPRPRPPHPRL-NH2) | 355 ng·h/mL | 600 ng/mL | 30.5 min | 6.4 mL/min | 17.3 min | 1000 ng/mL | 1900 ng·h/mL | 4100 ng/mL | 23.9 min | 5.4 mL/min | 11.1 min | ~ 90 min | 650 μg^*min^2*mL^−^1 | undetectable | 137 mL | 0.040 min^−^1 | 2730 μg^*min^2*mL^−^1 | 100 mL | 6.2 µg/mL | 0.062 min^−^1 | c0 (initial concentration at time point 0 min) (in vivo; 5 mg/kg): 1 µg/mL; Peptide level in brain homogenates (not detected, less than LOD) ([1]; female, NMRI): < 43 ng/mL homogenate; Concentration in urine ([1]; female, NMRI, 20 mg/kg): ~ 0.2 μg/mL; Peptide level in brain (not detected, LOD converted to brain weight) [1]: < 89 μg/g brain; Recovered peptide amount in kidneys of treated animals [1]: 1.8 µg/g; Recovery rate in blood relative to the injected peptide amount [1]: below 1%; Concentration in urine ([1]; 5 mg/kg): below LOD; pKd (70S ribosomes): 5.92
CC[C@H](C)[C@H](NC(=O)[C@H](Cc1ccc(O)cc1)NC(=O)[C@@H](NC(=O)[C@@H]1CCCN1C(=O)[C@H](CCCNC(=N)N)NC(=O)[C@H](CC(N)=O)NC(=O)[C@H](CC(N)=O)NC(=O)[C@H](CCCN)N=C(N(C)C)N(C)C)C(C)C)C(=O)N1CCC[C@H]1C(=O)N[C@@H](CCCNC(=N)N)C(=O)N1CCC[C@H]1C(=O)N[C@@H](CCCNC(=N)N)C(=O)N1CCC[C@H]1C(=O)N1CCC[C@H]1C(=O)N[C@@H](Cc1c[nH]cn1)C(=O)N1CCC[C@H]1C(=O)N[C@@H](CCCNC(=N)N)C(=O)N[C@@H](CC(C)C)C(=O)O [Api137] ({Orn(α-tetramethylguanidino)}-NNRPVYIPRPRPPHPRL-OH) | 160 ng·h/mL | 200 ng/mL | 54.9 min | 15.1 mL/min | 33.8 min | 200 ng/mL | 1200 ng·h/mL | 3600 ng/mL | 21 min | 8.4 mL/min | 16.9 min | ~ 90 min | 1512 μg^*min^2*mL^−^1 | still detected | 659 mL | 0.020 min^−^1 | 524 μg^*min^2*mL^−^1 | 77 mL | 7.8 µg/mL | 0.041 min^−^1 | c0 (initial concentration at time point 0 min) (in vivo; female, NMRI, 5 mg/kg): 0.22 µg/mL; t1/2 (elimination half life time) (in vivo; 20 mg/kg): 17 min; Kidney concentration estimated from detected peptide amount ([1]; estimating the volume of both kidneys as 0.5 mL): 4.8 µg/mL; Peptide level in brain homogenates (not detected, less than LOD) ([1]; female, NMRI): < 18 ng/mL homogenate; Peptide level in brain (not detected, LOD converted to brain weight) [1]: < 37 μg/g brain; Recovered peptide amount in kidneys of treated animals [1]: 2.4 µg/g; Recovery rate in blood relative to the injected peptide amount [1]: below 1%; pKd (70S ribosomes): 6.25
